Entries after “also recorded” stand apart in the source; their conditions may differ.
Columns and labels:
Assay type in all cases: cell-based, human
[1] = test system: mRNA TYR; assay: qRT-PCR mRNA expression of TYR; conditions: MNT-1 cells, 50 nM mimetic, day 12, relative to cel-miR-239b, ΔΔCt
Procedure: 4×10^5 MNT-1 cells were seeded per well in a 6-well plate (#353046, Falcon) on day-1. On day 0, the cells were transfected with 50 nM of mimetic of the miRNAs (hsa-mir-137 # C-300604-07-005, hsa-mir-7 # C-300547-05-0005, hsa-mir-330-5p # C-301082-01-0005, negative control # NC-002000-01-05, Dharmacon), using 5 μL of Lipofectamine 2000 (#1668-019, Invitrogen). On day 1, the medium was changed. On day 3, the cells were trypsinized and seeded at 4×10^5 cells per well. On day 4, the cells were transfected again with 50 nM of mimetic of the miRNAs (see day 0). On day 5, the medium was changed. On day 7, the cells were trypsinized and seeded at 4×10^5 cells per well. On day 8, the cells were transfected with 50 nM of mimetic of the miRNAs (see day 0). On day 9, the medium was changed. On day 10, the cells were trypsinized and divided into two (from one by six wells to two by six wells). On day 12, one six-well plate was used for lysis of the RNA and the other for lysis of the proteins. As positive control of depigmentation, MNT-1 cells were incubated with 3.5 mM of kojic acid (Sigma K3125-5G) for 12 days. The cells were distributed as described and the kojic acid was renewed with the medium every 4 days. The percentage inhibition of the kojic acid is of the order of 10%. 700 μL of Qiazol lysis buffer (Qiagen) was added per well of a six-well dish after washing the cells twice with PBS. The total RNA was isolated using the miRNeasy Mini kit (Qiagen) according to the manufacturer's protocol. The total RNA was eluted in 30 μl of water without RNAse. The concentration of RNA was measured using the NanoVue spectrophotometer (GE Healthcare). 1 μg of total RNA was reverse-transcribed using the MLV RT-Enzyme system (Invitrogen) in 60 μL of reaction to produce the corresponding cDNA. Real-time PCR was performed using the IQTM SYBR® Green supermix (Biorad) (final reaction volume of 25 μL: 23 μL of Mix Master and 2 μL of cDNA). The thermocycling conditions ([…], Biorad) were as follows: 95° C. for 90 s, and 40 cycles at 95° C. for 30 s, 60° C. for 60 s and 95° C. for 10 s. The concentrations of primers and the sequences are given in Table 5 below: The relative quantity was evaluated using the ΔΔCt comparative method. Briefly, this method compares the quantity of expression of the target gene relative to an endogenous control TBP, within a sample for normalizing the expression. Within a group of samples, a suitable sample is selected as the calibrator sample ([…]). Each sample is then compared with a designated reference to give the relative expression of the target gene relative to this reference sample.

[2] = test system: MNT-1 cells; assay: Overall pigmentation levels (photographs of protein lysates on day 12); conditions: 50 nM mimetic, 12 days, relative to negative control, photographs not shown
Procedure: 4×10^5 MNT-1 cells were seeded per well in a 6-well plate (#353046, Falcon) on day-1. On day 0, the cells were transfected with 50 nM of mimetic of the miRNAs (hsa-mir-137 # C-300604-07-005, hsa-mir-7 # C-300547-05-0005, hsa-mir-330-5p # C-301082-01-0005, negative control # NC-002000-01-05, Dharmacon), using 5 μL of Lipofectamine 2000 (#1668-019, Invitrogen). On day 1, the medium was changed. On day 3, the cells were trypsinized and seeded at 4×10^5 cells per well. On day 4, the cells were transfected again with 50 nM of mimetic of the miRNAs (see day 0). On day 5, the medium was changed. On day 7, the cells were trypsinized and seeded at 4×10^5 cells per well. On day 8, the cells were transfected with 50 nM of mimetic of the miRNAs (see day 0). On day 9, the medium was changed. On day 10, the cells were trypsinized and divided into two (from one by six wells to two by six wells). On day 12, one six-well plate was used for lysis of the RNA and the other for lysis of the proteins. As positive control of depigmentation, MNT-1 cells were incubated with 3.5 mM of kojic acid (Sigma K3125-5G) for 12 days. The cells were distributed as described and the kojic acid was renewed with the medium every 4 days. The percentage inhibition of the kojic acid is of the order of 10%. […] The XB2 keratinocytes serve as control for the unpigmented cells. […] As positive control of depigmentation, the MNT-1 cells were treated with kojic acid.

[3] = test system: MNT-1 cells; assay: Measurement of the relative melanin concentration (absorbance at 470 nm of protein lysates); conditions: 50 nM mimetic, day 12, relative to transfection control cel-miR-239b (miCtrl), normalized to protein
Procedure: 4×10^5 MNT-1 cells were seeded per well in a 6-well plate (#353046, Falcon) on day-1. On day 0, the cells were transfected with 50 nM of mimetic of the miRNAs (hsa-mir-137 # C-300604-07-005, hsa-mir-7 # C-300547-05-0005, hsa-mir-330-5p # C-301082-01-0005, negative control # NC-002000-01-05, Dharmacon), using 5 μL of Lipofectamine 2000 (#1668-019, Invitrogen). On day 1, the medium was changed. On day 3, the cells were trypsinized and seeded at 4×10^5 cells per well. On day 4, the cells were transfected again with 50 nM of mimetic of the miRNAs (see day 0). On day 5, the medium was changed. On day 7, the cells were trypsinized and seeded at 4×10^5 cells per well. On day 8, the cells were transfected with 50 nM of mimetic of the miRNAs (see day 0). On day 9, the medium was changed. On day 10, the cells were trypsinized and divided into two (from one by six wells to two by six wells). On day 12, one six-well plate was used for lysis of the RNA and the other for lysis of the proteins. As positive control of depigmentation, MNT-1 cells were incubated with 3.5 mM of kojic acid (Sigma K3125-5G) for 12 days. The cells were distributed as described and the kojic acid was renewed with the medium every 4 days. The percentage inhibition of the kojic acid is of the order of 10%.
On day 12, the cells were washed in PBS twice and lysed in 75 μL/well of a 6-well dish of lysis buffer for the RIPA proteins. The protein lysates were transferred to 1.5-ml Eppendorf tubes and vortexed lightly to homogenize the solution before putting the tube on ice or for storage at −80° C. 2 μL of protein lysate was used for measuring the absorbance of the melanin at 470 nm using the NanoVue spectrophotometer (GE Healthcare). The protein lysate of the unpigmented XB2 keratinocytes was used as calibrator sample (reference=0). To detect the relative quantity of melanin, all the samples were compared with the transfection control sample (miCtrl). The absorbance at 470 nm of the sample miCtrl was fixed at 1 as reference. In addition, the melanin absorption at 470 nm was normalized taking into account the concentration of proteins of each sample relative to miCtrl.

Substance	levels of mRNA TYR [1]	levels of mRNA TYR ([1]; listed as miR-7)	overall pigmentation levels [2]	overall pigmentation levels ([2]; listed as miR-7)	relative levels of melanin (absorbance at 470 nm) [3]
hsa-miR-7: mimetic of miRNA hsa-mir-7 (Dharmacon C-300547-05-0005); mature hsa-miR-7-5p sequence SEQ ID NO: 2 (UGGAAGACUAGUGAUUUUGUUGU; commercial mimic, chemistry not given here; listed as Homo sapiens)	decreased	appears to reduce	do not show a significant reduction	do not show any significant effect	slight increase
hsa-miR-137: mimetic of miRNA hsa-mir-137 (Dharmacon C-300604-07-005); mature sequence SEQ ID NO: 3 (UUAUUGCUUAAGAAUACGCGUAG; commercial mimic, chemistry not given here; listed as Homo sapiens)	decreased; also recorded: significantly reduced	–	significant reduction	–	reduction; also recorded: decrease in melanin
hsa-miR-330-5p: mimetic of miRNA hsa-mir-330-5p (Dharmacon C-301082-01-0005); mature sequence 5'-UCUCUGGGCCUGUGUCUUAGGC-3' (SEQ ID NO: 1) (UCUCUGGGCCUGUGUCUUAGGC; mimic duplex, passenger strand not given here; listed as Homo sapiens)	decreased; also recorded: appears to reduce	–	significant reduction	–	reduction; also recorded: decrease in melanin
